Experiments:
Assay type in all cases: cell-based
[1] = tested on: Jurkat T cell leukemia cell line; experiment: CCK-8 proliferation inhibition; conditions: Homo sapiens, 72 hours
In short: (§1)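 Plating at 2000 cells/well, then incubation overnight at 37° C. Next, a range of compound concentrations for 72 hours (control 1‰ DMSO). Finally, medium decanted and CCK-8 diluted 1:10 added.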

[2] = tested on: MCF-7 breast cancer cell line; experiment: CCK-8 proliferation inhibition; conditions: Homo sapiens, MCF7, 72 hours
In short: as §1

[3] = tested on: BEL-7402 liver cancer cell line; experiment: CCK-8 proliferation inhibition
In short: as §1

[4] = tested on: MGC-803 gastric cancer cell line; experiment: CCK-8 proliferation inhibition
In short: as §1

[5] = tested on: HL60 acute myeloid leukemia cell line; experiment: CCK-8 proliferation inhibition; conditions: Homo sapiens, HL-60, 72 hours
In short: as §1

[6] = tested on: PC3 prostate cancer cell line; experiment: CCK-8 proliferation inhibition; conditions: 72 hours
In short: as §1

[7] = tested on: Hela cervical cancer cell line; experiment: CCK-8 proliferation inhibition; conditions: Homo sapiens, 72 hours
In short: as §1

[8] = tested on: SAOS-2 osteosarcoma cell line; experiment: CCK-8 proliferation inhibition; conditions: Homo sapiens, 72 hours, read-out: IC50 Steosarcoma SAOS-2
In short: as §1

[9] = tested on: A549 lung cancer cell line; experiment: CCK-8 proliferation inhibition
In short: as §1

[10] = tested on: HCT-116 colorectal cancer cell line; experiment: CCK-8 proliferation inhibition; conditions: 72 hours, CCK-8
In short: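 Growth inhibition is read by CCK-8 (1:10 dilution) after 72 h of compound exposure. HCT-116 cells grow in McCoy's 5A containing 10% newborn bovine serum at 2000 cells/well, with 1‰ DMSO as vehicle control.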

[11] = tested on: Enterococcus faecalis (EFA); experiment: MIC, two-fold agar dilution (CLSI), clinical isolates
In short: (§2)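 Samples are serially diluted two-fold in agar following CLSI guidance. Plates are then inoculated with the tested strains. The lowest inhibiting concentration is recorded as MIC.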

[12] = tested on: methicillin-sensitive Staphylococcus epidermidis (MSSE); experiment: as above
In short: as §2

[13] = tested on: Escherichia coli (including ESBLs, non-ESBLs); experiment: as above
In short: as §2

[14] = tested on: Enterococcus faecium (EFM); experiment: as above
In short: as §2

[15] = tested on: Streptococcus pneoumoniae (SPN); experiment: as above
In short: as §2

[16] = tested on: methicillin-resistant Staphylococcus epidermidis (MRSE); experiment: as above
In short: as §2

[17] = tested on: methicillin-sensitive Staphylococcus aureus (MSSA); experiment: as above
In short: as §2

[18] = tested on: methicillin-resistant Staphylococcus aureus (MRSA); experiment: as above
In short: as §2

[19] = tested on: Moraxella catarrhalis (BCA); experiment: as above
In short: as §2

[20] = MIC in vitro anti-bacterial experiments, Gram-positive bacteria; conditions: lowest MIC reached; read-out: minimum inhibitory concentration against Gram-positive bacteria
In short: as §2

[21] = concentration of 30 μM, 72 hours, 30 µM

Compound: O=C(C[C@@H](CC1CCCC1)C(=O)N1CC2(CC2)C[C@H]1C(=O)Nc1ccc(F)cn1)NO [Example 64]
- IC50 [1]: 7.61 µM
- IC50 [2]: 6.62 µM
- IC50 ([3]; Homo sapiens, Bel-7402, 72 hours): 5 µM
- Inhibition of proliferation, Liver cancer BEL-7402 [3, 21]: 81%
- inhibition at 30 µM ([4]; Homo sapiens, MGC-803, 72 h, concentration of 30 μM): > 50%
- IC50 ([4]; Homo sapiens, MGC-803, 72 hours): 6.11 µM
- Inhibition of proliferation, Gastric cancer MGC-803 [4, 21]: 63%
- IC50 [5]: 1210 nM
- IC50 [6]: 6.17 µM
- IC50 [7]: 11.5 µM
- IC50 [8]: 2000 nM
- inhibition at 30 µM ([9]; Homo sapiens, A549, 72 h, concentration of 30 μM): > 50%
- IC50 ([9]; Homo sapiens, A549, 72 hours): 4.86 µM
- Inhibition of proliferation, Lung cancer A549 [9, 21]: 61%
- IC50 ([10]; Homo sapiens, HCT-116): 4.88 µM
- HCT116 inhibition rate/% ([10]; concentration of 30 μM, 30 µM): 87%
- Anti-bacterial activity (MIC), strain EFA 15-1 ([11]; clinical isolate EFA 15-1): 32 µg/mL
- Anti-bacterial activity (MIC), strain EFA 15-2 ([11]; clinical isolate EFA 15-2): 32 µg/mL
- Anti-bacterial activity (MIC), strain EFA 15-3 ([11]; clinical isolate EFA 15-3): 32 µg/mL
- Anti-bacterial activity (MIC), strain EFA 15-4 ([11]; clinical isolate EFA 15-4): 32 µg/mL
- Anti-bacterial activity (MIC), strain EFA 15-5 ([11]; clinical isolate EFA 15-5): 32 µg/mL
- Anti-bacterial activity (MIC), strain EFA 15-6 ([11]; clinical isolate EFA 15-6): 32 µg/mL
- Anti-bacterial activity (MIC), strain EFA 15-9 ([11]; clinical isolate EFA 15-9): 4 µg/mL
- Anti-bacterial activity (MIC), strain MSSE 15-3 ([12]; clinical isolate MSSE 15-3): 0.03 µg/mL
- Anti-bacterial activity (MIC), strain MSSE 15-4 ([12]; clinical isolate MSSE 15-4): 0.06 µg/mL
- Anti-bacterial activity (MIC), strain MSSE 15-5 ([12]; clinical isolate MSSE 15-5): 0.06 µg/mL
- Anti-bacterial activity (MIC), strain MSSE 15-6 ([12]; clinical isolate MSSE 15-6): > 8 ng/mL
- Anti-bacterial activity (MIC), strain ECO+ 15-1 ([13]; clinical isolate ECO+ 15-1): 16 µg/mL
- Anti-bacterial activity (MIC), strain ECO+ 15-2 ([13]; clinical isolate ECO+ 15-2): 32 µg/mL
- Anti-bacterial activity (MIC), strain ECO+ 15-3 ([13]; clinical isolate ECO+ 15-3): 16 µg/mL
- Anti-bacterial activity (MIC), strain ECO+ 15-4 ([13]; clinical isolate ECO+ 15-4): 16 µg/mL
- Anti-bacterial activity (MIC), strain ECO− 15-1 ([13]; clinical isolate ECO− 15-1): 16 µg/mL
- Anti-bacterial activity (MIC), strain ECO− 15-2 ([13]; clinical isolate ECO− 15-2): 16 µg/mL
- Anti-bacterial activity (MIC), strain ECO− 15-3 ([13]; clinical isolate ECO− 15-3): 32 µg/mL
- Anti-bacterial activity (MIC), strain ECO− 15-4 ([13]; clinical isolate ECO− 15-4): 16 µg/mL
- Anti-bacterial activity (MIC), strain EFM 15-1 ([14]; clinical isolate EFM 15-1): 32 µg/mL
- Anti-bacterial activity (MIC), strain EFM 15-2 ([14]; clinical isolate EFM 15-2): 32 µg/mL
- Anti-bacterial activity (MIC), strain EFM 15-3 ([14]; clinical isolate EFM 15-3): 32 µg/mL
- Anti-bacterial activity (MIC), strain EFM 15-4 ([14]; clinical isolate EFM 15-4): 1 µg/mL
- Anti-bacterial activity (MIC), strain EFM 15-5 ([14]; clinical isolate EFM 15-5): 1 µg/mL
- Anti-bacterial activity (MIC), strain EFM 15-6 ([14]; clinical isolate EFM 15-6): 1 µg/mL
- Anti-bacterial activity (MIC), strain SPN 16-2 ([15]; clinical isolate SPN 16-2): 0.125 µg/mL
- Anti-bacterial activity (MIC), strain SPN 16-4 ([15]; clinical isolate SPN 16-4): 0.125 µg/mL
- Anti-bacterial activity (MIC), strain MRSE 15-1 ([16]; clinical isolate MRSE 15-1): 0.06 µg/mL
- Anti-bacterial activity (MIC), strain MRSE 15-2 ([16]; clinical isolate MRSE 15-2): 0.06 µg/mL
- Anti-bacterial activity (MIC), strain MRSE 15-3 ([16]; clinical isolate MRSE 15-3): 0.06 µg/mL
- Anti-bacterial activity (MIC), strain MRSE 15-7 ([16]; clinical isolate MRSE 15-7): 0.06 µg/mL
- Anti-bacterial activity (MIC), strain MSSA 15-3 ([17]; clinical isolate MSSA 15-3): 0.06 µg/mL
- Anti-bacterial activity (MIC), strain MSSA 15-4 ([17]; clinical isolate MSSA 15-4): 0.03 µg/mL
- Anti-bacterial activity (MIC), strain MSSA 15-5 ([17]; clinical isolate MSSA 15-5): 0.03 µg/mL
- Anti-bacterial activity (MIC), strain MSSA 15-6 ([17]; clinical isolate MSSA 15-6): 16 µg/mL
- Anti-bacterial activity (MIC), strain MRSA 15-1 ([18]; clinical isolate MRSA 15-1): 0.03 µg/mL
- Anti-bacterial activity (MIC), strain MRSA 15-2 ([18]; clinical isolate MRSA 15-2): 0.06 µg/mL
- Anti-bacterial activity (MIC), strain MRSA 15-3 ([18]; clinical isolate MRSA 15-3): 0.03 µg/mL
- Anti-bacterial activity (MIC), strain MRSA 15-4 ([18]; clinical isolate MRSA 15-4): 0.06 µg/mL
- Anti-bacterial activity (MIC), strain BCA 14-1 ([19]; clinical isolate BCA 14-1): 0.25 µg/mL
- Anti-bacterial activity (MIC), strain BCA 14-4 ([19]; clinical isolate BCA 14-4): 1 µg/mL
- Anti-bacterial activity (MIC), strain BCA 14-5 ([19]; clinical isolate BCA 14-5): 1 µg/mL
- Anti-bacterial activity (MIC), strain BCA 14-6 ([19]; clinical isolate BCA 14-6): 1 µg/mL
- Anti-bacterial activity (MIC), strain BCA 14-7 ([19]; clinical isolate BCA 14-7): 1 µg/mL
- Anti-bacterial activity (MIC), strain BCA 14-8 ([19]; clinical isolate BCA 14-8): 0.125 µg/mL
- Anti-bacterial activity (MIC), strain BCA 14-10 ([19]; clinical isolate BCA 14-10): 0.125 µg/mL
- MIC [20]: < 8 ng/mL

Source: patent publication US10738028B2, “Spiro three-membered ring, spiro five-membered ring peptide deformylase inhibitor and use thereof in antibacteria and anti-tumor” (priority 2016, dated 2020)
